Marks after values point to notes of the source that are not given here.
Test system: Vero cells
Experiment: Cytotoxicity on Vero cells (PrestoBlue)
Assay type: cell-based
Conditions: for Percent Cell Death: African green monkey, 48 h
Protocol: Cells. Vero cells (American Type Culture Collection (ATCC), Manassas, VA, CCL-81) were maintained in medium 199 (Sigma Chemical Company, St. Louis, MO) that was supplemented with 8% fetal bovine serum (Invitrogen, Carlsbad, CA), 1.25 μg/mL fungizone (Invitrogen, Carlsbad, CA) and penicillin-streptomycin, 1000 U/mL and 1 mg/mL respectively (Sigma Chemical Company, St. Louis, MO). Cells were passed weekly using 0.1% trypsin (Sigma Chemical Company, St. Louis, MO) to detach the cells from the flasks. Cell quantification was done by trypan blue exclusion.
Cytotoxicity and Virus Inhibition. All ginsenosides, isomers, and protopanaxadiols were evaluated for toxic effects on Vero cells prior to anti-viral testing. Cells were seeded at 5000 cells/well in a black 96-well plate with clear bottom in a volume of 100 μL and allowed to attach for 24 hours. […] Each dilution was tested in three wells and all assays were repeated three times. Following a 48 hour-incubation at 37° C. in 5% CO2, 11 μL of PrestoBlue (Invitrogen, Carlsbad, Calif.) was added to each well and the plate was incubated for an additional 30 minutes. PrestoBlue determines cell viability by changing from blue to red as resazurin is reduced to resorufin by viable cells. Following the PrestoBlue incubation, fluorescence was determined by spectrophotometric reading using Soft Max Pro (Molecular Diagnostics, San Jose, Calif., USA).
For cytotoxicity testing, 4 μL of dilutions of the ginsenosides or protopanaxadiols were added to 396 μL of medium 199 and 100 μL of this mixture was added to each of three wells. For anti-viral testing, 4 μL of the non-toxic reagent and 4 μL of HSV-1 or HSV-2 diluted to an MOI of 0.1 were added to 392 μL of medium 199 and 100 μL of this mixture was added to each of three wells. Virus inhibition was determined by comparing the cell death of reagent-exposed cells with cell death of control cells only receiving virus. The 50% inhibitory concentration (IC50) was determined through a series of two-fold dilutions and calculation by linear regression analysis.

What does the source list for `CC(C)=CCC[C@](C)(O)C1CC[C@]2(C)C1[C@H](O)CC1[C@@]3(C)CC[C@H](O[C@@H]4OC(CO)[C@@H](O)[C@@H](O)C4O[C@@H]4OC(CO)[C@@H](O)[C@@H](O)C4O)C(C)(C)C3CC[C@]12C` (stereo partly drawn) [20(S)-Rg3, 20(S)-ginsenoside-Rg3]?
Percent Cell Death (50 μM): (13.0 ± 3.1) %; Percent Cell Death (100 μM): (14.3 ± 4.5) %; Percent Cell Death (125 μM): (22.3 ± 1.8) %; Percent Cell Death (250 μM): (28.7 ± 1.4) ^1) %; IC50 (Chlorocebus sabaeus, Vero, read-out: IC50 against the host Vero cells (toxicity)): ~400 µM
